Data as given in patent US20220306695A1, “COMPSTATIN ANALOGUES AND THEIR MEDICAL USES” (priority 2019, published 2022).
Positions of bridges follow the written chain, without caps; N, C: chain ends. Non-standard residues stand in square brackets, D forms with d. Residues, ends and D or L forms follow the SMILES beside them. Trp(1-Me) = Cn1cc(C[C@H](N)C(=O)O)c2ccccc21; 1Nal = N[C@@H](Cc1cccc2ccccc12)C(=O)O; 2Nal = N[C@@H](Cc1ccc2ccccc2c1)C(=O)O

Columns and labels:
[1] = tested on: classical complement pathway; experiment: In vitro haemolysis assay (inhibition of classical complement pathway); type: cell-based, human; conditions: Table 3; human serum, sensitized sheep red blood cells; read-out: IC50[nM], in vitro analysis of inhibition of hemolysis
Method in brief: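 Serially diluted compound (9 points) was preincubated 15 min at room temperature with diluted human serum, titrated per batch to give 70-90% maximal haemolysis, in Tris/casein buffer pH 7.4 with Mg2+/Ca2+. Antibody-sensitized sheep erythrocytes were then added for 30 min at 37° C, and the reaction was stopped with EDTA. Haemolysis was read at A405, with IC50 from 4PL fit.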

[2] = Solubility test at 10 mg/mL (visual inspection and light scattering); type: physicochemical; conditions: for Solubility, Condition 1 Acetate pH 4: 10 mg/mL compound in 100 mM acetate pH 4; for Solubility, Condition 2 Acetate pH 5: 10 mg/mL compound in 100 mM acetate pH 5; for Solubility, Condition 3 Phosphate pH 6: 10 mg/mL compound in 100 mM phosphate pH 6; for Solubility, Condition 4 Phosphate pH 7: 10 mg/mL compound in 100 mM phosphate pH 7; for Solubility, Condition 5 Phosphate pH 7.5: 10 mg/mL compound in 100 mM phosphate pH 7.5

SMILES | IC50 [1] | Solubility, Condition 1 Acetate pH 4 [2] | Solubility, Condition 2 Acetate pH 5 [2] | Solubility, Condition 3 Phosphate pH 6 [2] | Solubility, Condition 4 Phosphate pH 7 [2] | Solubility, Condition 5 Phosphate pH 7.5 [2]
CC[C@H](C)[C@@H]1NC(=O)[C@@H](NC(=O)[C@H](Cc2ccccc2)NC(=O)[C@H](C)NC(=O)[C@H](CO)NC(=O)CNC(=O)[C@H](CCC(=O)O)NC(C)=O)CSSC[C@@H](C(=O)N[C@H](C(=O)N[C@@H](CCC(=O)O)C(N)=O)[C@@H](C)O)NC(=O)[C@H](CCCNC(=N)N)NC(=O)[C@H](Cc2c[nH]cn2)NC(=O)[C@H](CCC(=O)O)NC(=O)CNC(=O)[C@H](Cc2c[nH]c3ccccc23)NC(=O)[C@H](CC(=O)O)NC(=O)[C@H](CCC(N)=O)NC(=O)[C@H](Cc2cn(C)c3ccccc23)NC1=O [Compound 57] (Ac-EGSAFCI[Trp(1-Me)]QDWGEHRCTE-NH2; disulfide 6-16) | < 100 nM | − (denotes lack of solubility at the given condition, as UV absorbance at 340 nm exceeds 0.1 AU and/or it is visibly turbid or contains particles.) | − (denotes lack of solubility at the given condition, as UV absorbance at 340 nm exceeds 0.1 AU and/or it is visibly turbid or contains particles.) | + (denotes solubility at the given condition, as determined by UV absorbance being less than 0.1 AU at 340 nm and the sample being clear when manually inspected.) | + (denotes solubility at the given condition, as determined by UV absorbance being less than 0.1 AU at 340 nm and the sample being clear when manually inspected.) | + (denotes solubility at the given condition, as determined by UV absorbance being less than 0.1 AU at 340 nm and the sample being clear when manually inspected.)
CC[C@H](C)[C@@H]1NC(=O)[C@@H](NC(=O)[C@H](Cc2ccccc2)NC(=O)[C@H](C)NC(=O)[C@H](CO)NC(=O)CNC(=O)[C@H](CCC(=O)O)NC(C)=O)CSSC[C@@H](C(=O)N[C@H](C(=O)N[C@@H](CCC(=O)O)C(N)=O)[C@@H](C)O)NC(=O)[C@H](CCCNC(=N)N)NC(=O)[C@H](Cc2c[nH]cn2)NC(=O)[C@H](CCC(=O)O)NC(=O)CNC(=O)[C@H](Cc2c[nH]c3ccccc23)NC(=O)[C@H](CC(=O)O)NC(=O)[C@H](CCC(N)=O)NC(=O)[C@H](Cc2ccc3ccccc3c2)NC1=O [Compound 60] (Ac-EGSAFCI[2Nal]QDWGEHRCTE-NH2; disulfide 6-16) | < 100 nM | − (denotes lack of solubility at the given condition, as UV absorbance at 340 nm exceeds 0.1 AU and/or it is visibly turbid or contains particles.) | − (denotes lack of solubility at the given condition, as UV absorbance at 340 nm exceeds 0.1 AU and/or it is visibly turbid or contains particles.) | + (denotes solubility at the given condition, as determined by UV absorbance being less than 0.1 AU at 340 nm and the sample being clear when manually inspected.) | + (denotes solubility at the given condition, as determined by UV absorbance being less than 0.1 AU at 340 nm and the sample being clear when manually inspected.) | + (denotes solubility at the given condition, as determined by UV absorbance being less than 0.1 AU at 340 nm and the sample being clear when manually inspected.)
CC[C@H](C)[C@@H]1NC(=O)[C@@H](NC(=O)[C@H](Cc2ccc(O)cc2)NC(C)=O)CSSC[C@@H](C(=O)N[C@H](C(=O)NCC(=O)N[C@@H](C)C(=O)N[C@@H](CCC(=O)O)C(=O)N[C@@H](CO)C(N)=O)[C@@H](C)O)NC(=O)[C@H](CCCNC(=N)N)NC(=O)[C@H](Cc2c[nH]cn2)NC(=O)[C@H](CCC(=O)O)NC(=O)CNC(=O)[C@H](Cc2c[nH]c3ccccc23)NC(=O)[C@H](CC(=O)O)NC(=O)[C@H](CCC(N)=O)NC(=O)[C@H](Cc2cn(C)c3ccccc23)NC1=O [Compound 62] (Ac-YCI[Trp(1-Me)]QDWGEHRCTGAES-NH2; disulfide 2-12) | < 100 nM | − (denotes lack of solubility at the given condition, as UV absorbance at 340 nm exceeds 0.1 AU and/or it is visibly turbid or contains particles.) | − (denotes lack of solubility at the given condition, as UV absorbance at 340 nm exceeds 0.1 AU and/or it is visibly turbid or contains particles.) | + (denotes solubility at the given condition, as determined by UV absorbance being less than 0.1 AU at 340 nm and the sample being clear when manually inspected.) | + (denotes solubility at the given condition, as determined by UV absorbance being less than 0.1 AU at 340 nm and the sample being clear when manually inspected.) | + (denotes solubility at the given condition, as determined by UV absorbance being less than 0.1 AU at 340 nm and the sample being clear when manually inspected.)
CC[C@H](C)[C@@H]1NC(=O)[C@@H](NC(=O)[C@H](Cc2ccccc2)NC(C)=O)CSSC[C@@H](C(=O)N[C@H](C(=O)NCC(=O)N[C@@H](C)C(=O)N[C@@H](CCC(=O)O)C(=O)N[C@@H](CO)C(N)=O)[C@@H](C)O)NC(=O)[C@H](CCCNC(=N)N)NC(=O)[C@H](Cc2c[nH]cn2)NC(=O)[C@H](CCC(=O)O)NC(=O)CNC(=O)[C@H](Cc2c[nH]c3ccccc23)NC(=O)[C@H](CC(=O)O)NC(=O)[C@H](CCC(N)=O)NC(=O)[C@H](Cc2cccc3ccccc23)NC1=O [Compound 63] (Ac-FCI[1Nal]QDWGEHRCTGAES-NH2; disulfide 2-12) | < 100 nM | − (denotes lack of solubility at the given condition, as UV absorbance at 340 nm exceeds 0.1 AU and/or it is visibly turbid or contains particles.) | − (denotes lack of solubility at the given condition, as UV absorbance at 340 nm exceeds 0.1 AU and/or it is visibly turbid or contains particles.) | + (denotes solubility at the given condition, as determined by UV absorbance being less than 0.1 AU at 340 nm and the sample being clear when manually inspected.) | + (denotes solubility at the given condition, as determined by UV absorbance being less than 0.1 AU at 340 nm and the sample being clear when manually inspected.) | + (denotes solubility at the given condition, as determined by UV absorbance being less than 0.1 AU at 340 nm and the sample being clear when manually inspected.)
CC[C@H](C)[C@@H]1NC(=O)[C@@H](NC(=O)[C@H](Cc2ccc(O)cc2)NC(C)=O)CSSC[C@@H](C(=O)N[C@H](C(=O)NCC(=O)N[C@@H](C)C(=O)N[C@@H](CCC(=O)O)C(=O)N[C@@H](CO)C(N)=O)[C@@H](C)O)NC(=O)[C@H](CCCNC(=N)N)NC(=O)[C@H](Cc2c[nH]cn2)NC(=O)[C@H](CCC(=O)O)NC(=O)CNC(=O)[C@H](Cc2c[nH]c3ccccc23)NC(=O)[C@H](CC(=O)O)NC(=O)[C@H](CCC(N)=O)NC(=O)[C@H](Cc2ccc3ccccc3c2)NC1=O [Compound 65] (Ac-YCI[2Nal]QDWGEHRCTGAES-NH2; disulfide 2-12) | < 100 nM | − (denotes lack of solubility at the given condition, as UV absorbance at 340 nm exceeds 0.1 AU and/or it is visibly turbid or contains particles.) | − (denotes lack of solubility at the given condition, as UV absorbance at 340 nm exceeds 0.1 AU and/or it is visibly turbid or contains particles.) | + (denotes solubility at the given condition, as determined by UV absorbance being less than 0.1 AU at 340 nm and the sample being clear when manually inspected.) | + (denotes solubility at the given condition, as determined by UV absorbance being less than 0.1 AU at 340 nm and the sample being clear when manually inspected.) | + (denotes solubility at the given condition, as determined by UV absorbance being less than 0.1 AU at 340 nm and the sample being clear when manually inspected.)
CC[C@H](C)[C@@H]1NC(=O)[C@@H](NC(=O)[C@H](Cc2ccc(O)cc2)NC(C)=O)CSSC[C@@H](C(=O)N[C@H](C(=O)NCC(=O)N[C@@H](C)C(=O)N[C@@H](CCC(=O)O)C(=O)N[C@@H](CO)C(N)=O)[C@@H](C)O)NC(=O)[C@H](CCCNC(=N)N)NC(=O)[C@H](Cc2c[nH]cn2)NC(=O)[C@H](CCC(=O)O)NC(=O)CNC(=O)[C@H](Cc2c[nH]c3ccccc23)NC(=O)[C@H](CC(=O)O)NC(=O)[C@H](CCC(N)=O)NC(=O)[C@H](Cc2c[nH]c3ccccc23)NC1=O [Compound 66] (Ac-YCIWQDWGEHRCTGAES-NH2; disulfide 2-12) | < 100 nM | − (denotes lack of solubility at the given condition, as UV absorbance at 340 nm exceeds 0.1 AU and/or it is visibly turbid or contains particles.) | − (denotes lack of solubility at the given condition, as UV absorbance at 340 nm exceeds 0.1 AU and/or it is visibly turbid or contains particles.) | + (denotes solubility at the given condition, as determined by UV absorbance being less than 0.1 AU at 340 nm and the sample being clear when manually inspected.) | + (denotes solubility at the given condition, as determined by UV absorbance being less than 0.1 AU at 340 nm and the sample being clear when manually inspected.) | + (denotes solubility at the given condition, as determined by UV absorbance being less than 0.1 AU at 340 nm and the sample being clear when manually inspected.)
